Earlier results as cited in article PMC4920590, “GPR142 Controls Tryptophan-Induced Insulin and Incretin Hormone Secretion to Improve Glucose Metabolism” (PLoS ONE, 2016).

System: Calcium-sensing receptor (CaSR)
Design: method as in PMID 24812056
Conditions: rats; cited from earlier work

Structure (SMILES): C[C@@H](NCCCc1cccc(C(F)(F)F)c1)c1cccc2ccccc12 [Cinacalcet]
- glucose: lower glucose
